Drawing on PubChem BioAssay AID2060346 (Molecular Pharmacology Branch, DTP, NCI, 2025), this text covers IC50 and viability, T/C for five compounds.

SMILES strings stand for the structures. Values joined by “and” are separate entries in the source; they are usually repeats but may differ in a detail not shown here. Equal entries are not always repeated.

For the assay, the system named is CN0375-F725-PDC multi-cell spheroids, viability. Put plainly: Anticancer human tumor CN0375-F725-PDC patient-derived colon carcinoma cell line growth inhibition [TAK]. To be noted: for viability, T/C: stronger effect = lower value. The source says: Combinatorial screen of targeted agents with TAK-243 and ipatasertib in multi-cell type tumor spheroids
A high-throughput screen of multi-cell type tumor spheroids was designed to identify active combinations of targeted small molecules and TAK-243 or ipatasertib. Complex spheroids include a stromal component modeled by human endothelial cells (HUVEC) and fibroblasts modeled by human mesenchymal stem cells (MSCs). The concentration ranges selected for each drug and investigational agent were based upon clinically achievable concentrations if the clinical Cmax of the agent was known.
Compounds. The drugs and investigational agents: TAK-243 (785004), ipatasertib (767898), everolimus (733504), selumetinib (741078), bortezomib (756655), trametinib (758246), ixazomib (758254), vemurafenib (761431), dabrafenib (764134), sapanisertib (764658), alpelisib (765974), and copanlisib (816437), were obtained from the National Cancer Institute (NCI) Developmental Therapeutics Program Chemical Repository. The FDA-approved anticancer drug set is available from the NCI Developmental Therapeutics Program. […] The stock solutions were prepared in dimethyl sulfoxide (DMSO, Sigma-Aldrich, St. Louis, MO, cat. D2650) at 800-fold the tested concentration and stored at -70 degrees C prior to their use. All drugs and investigational agents were tested over a range starting from a high concentration at or near the clinical Cmax and decreasing in half-log increments. If the clinical Cmax for an agent had not been determined, the highest concentration tested was 10 microM.
NCI60 Cell Culture. NCI60 cell lines were obtained from the NCI Developmental Therapeutics Program Tumor Repository. For each lot of cells, the Repository performed Applied Biosystems AmpFLSTR Identifiler testing with PCR amplification to confirm consistency with the published Identifier STR profile for each cell line. Cells were kept in continuous culture for no more than 20 passages. The optimal seeding densities for each of the cell lines at each time point assessed were determined prior to performing the concentration response studies. Briefly, the NCI60 human tumor lines were grown as monolayers in RPMI 1640 medium supplemented with 10% FBS and 2 mmol/L L-glutamine.
An additional 2 lines were from the NCI60 cell line panel including melanomas, MALME-3M and SK-MEL-2. Pooled donor human umbilical vein endothelial cells (HUVEC, Lonza, cat. CC-2519) and human mesenchymal stem cells (hMSC, Lonza, cat. PT-2501) were purchased from Lonza (Walkersville, MD).
PDMR cell lines were grown in complete medium (DC medium): Dulbecco's modified Eagle's medium (DMEM)/F12 supplemented with 5% fetal bovine serum (FBS), 2 mM L-glutamine, 100 U/mL penicillin and 100 µg/ml streptomycin, 0.4 µg/ml hydrocortisone, 10 ng/ml epidermal growth factor (EGF) recombinant human protein, 24 µg/mL adenine, and 0.1 mg/mL primocin. During culture from frozen stock vials, PDMR cells were cultured in the same medium containing 10 µM Y-27632 (see Table 3). The PDCs were cultured in complete DMEM/F12 media without 10 microM Y-27632 dihydrochloride for at least two passages prior to the screen. The pooled donor HUVEC and hMSC were cultured in endothelial cell growth medium 2 (PromoCell, Heidelberg, Germany, cat. C-22011) and mesenchymal stem cell growth medium 2 (PromoCell, cat. C-28009), respectively. For all experiments, HUVEC and hMSC were used at passages </=5.
For the pre-screen, cell seeding densities were determined from a titration spanning the range from 5,000 to 313 cells per well. The mct-spheroids including 60% malignant cells, 25% HUVEC and 15% MSC dispensed as a mixture into U-bottom Ultra-Low Attachment 384-well plates (Corning, NY)
High-throughput Drug Combination Screening.
Prior to their inoculation into 384-well plates, malignant cells, HUVEC, and hMSC were removed from T flasks using TrypLE express (Thermo Fisher Scientific, cat. 12605036) and harvested by centrifugation for 5 min at 233 x g. […]

The mark [1] stands for this setting: curve of first compound, second compound 0.3 µM.
The mark [2] stands for this setting: curve of first compound, second compound 0.949 µM.
Setting [3] is: curve of first compound, second compound 3 µM.
The mark [4] stands for this setting: curve of first compound, second compound 9.49 µM.
Setting [5] is: curve of first compound, second compound 30 µM.
The mark [6] stands for this setting: second compound 0.3 µM, first compound 0.000316 µM.
Where [7] appears, read: second compound 0.3 µM, first compound 0.001 µM.
Setting [8] is: second compound 0.3 µM, first compound 0.00316 µM.
Setting [9] is: second compound 0.3 µM, first compound 0.01 µM.
Setting [10] is: second compound 0.3 µM, first compound 0.0316 µM.
Where [11] appears, read: second compound 0.3 µM, first compound 0.1 µM.
[12] abbreviates: second compound 0.949 µM, first compound 0.000316 µM.
Setting [13] is: second compound 0.949 µM, first compound 0.001 µM.
Where [14] appears, read: second compound 0.949 µM, first compound 0.00316 µM.
[15] abbreviates: second compound 0.949 µM, first compound 0.01 µM.
[16] abbreviates: second compound 0.949 µM, first compound 0.0316 µM.
Where [17] appears, read: second compound 0.949 µM, first compound 0.1 µM.
The mark [18] stands for this setting: second compound 3 µM, first compound 0.000316 µM.
The mark [19] stands for this setting: second compound 3 µM, first compound 0.001 µM.
[20] abbreviates: second compound 3 µM, first compound 0.00316 µM.
Where [21] appears, read: second compound 3 µM, first compound 0.01 µM.
The mark [22] stands for this setting: second compound 3 µM, first compound 0.0316 µM.
[23] abbreviates: second compound 3 µM, first compound 0.1 µM.
The mark [24] stands for this setting: second compound 9.49 µM, first compound 0.000316 µM.
Setting [25] is: second compound 9.49 µM, first compound 0.001 µM.
[26] abbreviates: second compound 9.49 µM, first compound 0.00316 µM.
The mark [27] stands for this setting: second compound 9.49 µM, first compound 0.01 µM.
The mark [28] stands for this setting: second compound 9.49 µM, first compound 0.0316 µM.
The mark [29] stands for this setting: second compound 9.49 µM, first compound 0.1 µM.
Where [30] appears, read: second compound 30 µM, first compound 0.000316 µM.
[31] abbreviates: second compound 30 µM, first compound 0.001 µM.
The mark [32] stands for this setting: second compound 30 µM, first compound 0.00316 µM.
Setting [33] is: second compound 30 µM, first compound 0.01 µM.
Where [34] appears, read: second compound 30 µM, first compound 0.0316 µM.
The mark [35] stands for this setting: second compound 30 µM, first compound 0.1 µM.
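Further: spheroids exposed to drugs for seven days.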

Usually IC50 stands for the concentration that inhibits the measured activity by half. By viability, T/C is commonly meant the result in the treated group divided by that in the control group, in per cent. `CC(C)n1nc(-c2ccc3oc(N)nc3c2)c2c(N)ncnc21` + CC(C)NCC(C(=O)N1CCN(c2ncnc3c2C(C)CC3O)CC1)c1ccc(Cl)cc1: the half-maximal inhibitory concentration (IC50) by setting is: under setting [1], greater than 100 nM; under setting [2], greater than 100 nM; under setting [3], greater than 100 nM; under setting [4], 76.5 nM; under setting [5], 24.3 nM. In addition, the viability, T/C under setting [6] was 108%; the viability, T/C under setting [7] is 102%; the viability, T/C under setting [8] was 95.8%; the viability, T/C under setting [9] is 79.2%; the viability, T/C under setting [10] is 71.1%; the viability, T/C under setting [11] was 59.5%. Besides, the viability, T/C is 96.9% under setting [12]; 99.5% under setting [13]; 89.7% under setting [14]; 80.3% under setting [15]; 68.3% under setting [16]; 57.5% under setting [17]. Further, the viability, T/C under setting [18] is 90.6%; the viability, T/C under setting [19] was 95.3%; the viability, T/C under setting [20] is 87.4%; the viability, T/C under setting [21] was 80.3%; the viability, T/C under setting [22] was 65.9%; the viability, T/C under setting [23] is 54.4%. In addition, the viability, T/C reads like this: under setting [24], 84.9%; under setting [25], 91.4%; under setting [26], 82.6%; under setting [27], 77.3%; under setting [28], 60.3%; under setting [29], 46.9%. Besides, the viability, T/C by setting is: under setting [30], 67.7%; under setting [31], 69.2%; under setting [32], 75.6%; under setting [33], 68.5%; under setting [34], 44.4%; under setting [35], 36.6%.

`CC(C)n1nc(-c2ccc3oc(N)nc3c2)c2c(N)ncnc21`: the viability, T/C by setting is: (compound 0.000316 µM) 109% and 106%; (compound 0.001 µM) 105% and 101%; (compound 0.00316 µM) 91.7% and 93.4%; (compound 0.01 µM) 85.5% and 83.8%; (compound 0.0316 µM) 73.1% and 76.7%; (compound 0.1 µM) 58.9% and 61.4%. For the same compound, the IC50 (curve of compound) was greater than 100 nM.

As to `COc1c(OCCCN2CCOCC2)ccc2c3n(c(=NC(=O)c4cnc(N)nc4)nc12)CCN3`, the viability, T/C reads like this: (compound 0.00316 µM) 96.6% and 99.3%; (compound 0.01 µM) 89.4% and 83.8%; (compound 0.0316 µM) 78.5% and 68.5%; (compound 0.1 µM) 63.8% and 55.3%; (compound 0.316 µM) 42.5% and 39.9%; (compound 1 µM) 34.6% and 29.2%. The IC50 (curve of compound) was 220 nM and 144 nM.

With `Cc1nc(NC(=O)N2CCCC2C(N)=O)sc1-c1ccnc(C(C)(C)C(F)(F)F)c1` (stereo unspecified), the viability, T/C is 102% and 105% (compound 0.0316 µM); 93.8% and 98.5% (compound 0.1 µM); 92.2% and 85.6% (compound 0.316 µM); 85.7% and 77.4% (compound 1 µM); 68.3% and 65.6% (compound 3.16 µM); 57.7% and 47.6% (compound 10 µM). For the setting “curve of compound”, the IC50 was > 10000 nM and 9170 nM.

In the case of `COC1CC2CCC(C)C(O)(O2)C(=O)C(=O)N2CCCCC2C(=O)OC(C(C)CC2CCC(OCCO)C(OC)C2)CC(=O)C(C)C=C(C)C(O)C(OC)C(=O)C(C)CC(C)C=CC=CC=C1C` (stereo unspecified) + CC(C)NCC(C(=O)N1CCN(c2ncnc3c2C(C)CC3O)CC1)c1ccc(Cl)cc1, the IC50 under setting [1] is greater than 100 nM; the IC50 under setting [2] is greater than 100 nM; the IC50 under setting [3] was greater than 100 nM; the IC50 under setting [4] was greater than 100 nM; the half-maximal inhibitory concentration (IC50) under setting [5] is greater than 100 nM. Further, the viability, T/C is 97.5% under setting [6]; 95.1% under setting [7]; 89.1% under setting [8]; 82.5% under setting [9]; 81.1% under setting [10]; 81.1% under setting [11]. The viability, T/C is 99% under setting [12]; 94.8% under setting [13]; 84.5% under setting [14]; 81.1% under setting [15]; 78.3% under setting [16]; 78.2% under setting [17]. Besides, the viability, T/C runs as follows: under setting [18], 88.7%; under setting [19], 83.9%; under setting [20], 83.9%; under setting [21], 77.8%; under setting [22], 77.4%; under setting [23], 75.9%. The viability, T/C is, setting by setting: under setting [24], 83.3%; under setting [25], 84.1%; under setting [26], 80.7%; under setting [27], 71.1%; under setting [28], 76%; under setting [29], 71%. Also, the viability, T/C under setting [30] was 71.3%; the viability, T/C under setting [31] is 76.8%; the viability, T/C under setting [32] was 72.2%; the viability, T/C under setting [33] was 63.5%; the viability, T/C under setting [34] is 75.8%; the viability, T/C under setting [35] was 68.5%.
